PubChem BioAssay AID330 (DTP/NCI, 2004)
Values joined by “and” are separate entries in the source; they are usually repeats but may differ in a detail not shown here. Equal entries are not always repeated. Inconclusive results and toxic doses are left out. Rule for the calls: active = survival T/C of 150% or more; inactive = T/C below 125% in these data.

System: P388 leukemia ip, CD2F1 mice, survival T/C
Test: NCI In Vivo Anticancer Drug Screen. Data for tumor model P388 Leukemia (intraperitoneal) in CD2F1 (CDF1) mice
Conditions: endpoint: median survival time, higher = longer survival
Summary of the method: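 Mice carrying the transplanted tumor received test compound or vehicle. Survival was recorded in each group, and the value is the treated-group measurement divided by that of the vehicle-treated control group.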

[1] = dose: 50.0 mg/kg/injection, schedule: Q04DX003 (ip), vehicle: saline with Tween-80
[2] = dose: 100.0 mg/kg/injection, schedule: Q04DX003 (ip), vehicle: saline with Tween-80
[3] = dose: 200.0 mg/kg/injection, schedule: Q04DX003 (ip), vehicle: saline with Tween-80
[4] = dose: 50.0 mg/kg/injection, schedule: Q01DX005 (ip), vehicle: Klucel (hydroxypropylcellulose) (HPC)
[5] = dose: 400.0 mg/kg/injection, schedule: Q04DX003 (ip), vehicle: saline with Tween-80
[6] = dose: 60.0 mg/kg/injection, schedule: Q01DX005 (ip), vehicle: Klucel (hydroxypropylcellulose) (HPC)
[7] = dose: 120.0 mg/kg/injection, schedule: Q01DX005 (ip), vehicle: Klucel (hydroxypropylcellulose) (HPC)
[8] = dose: 240.0 mg/kg/injection, schedule: Q01DX005 (ip), vehicle: Klucel (hydroxypropylcellulose) (HPC)
[9] = dose: 25.0 mg/kg/injection, schedule: Q04DX003 (ip), vehicle: saline with Tween-80
[10] = dose: 60.0 mg/kg/injection, schedule: Q01DX005 (ip), vehicle: saline with Tween-80
[11] = dose: 120.0 mg/kg/injection, schedule: Q01DX005 (ip), vehicle: saline with Tween-80
[12] = dose: 240.0 mg/kg/injection, schedule: Q01DX005 (ip), vehicle: saline with Tween-80
[13] = dose: 100.0 mg/kg/injection, schedule: Q01DX001 (ip), vehicle: Klucel (hydroxypropylcellulose) (HPC)
[14] = dose: 200.0 mg/kg/injection, schedule: Q01DX001 (ip), vehicle: Klucel (hydroxypropylcellulose) (HPC)
[15] = dose: 400.0 mg/kg/injection, schedule: Q01DX001 (ip), vehicle: Klucel (hydroxypropylcellulose) (HPC)

Measured: T/C

CCCNC(=O)NS(=O)(=O)c1ccc(Cl)cc1
inactive: [1] 102 % of control | [2] 109 % of control | [3] 100 % of control

C(=C\c1ccnnc1)/c1ccccc1
inactive: dose: 50.0 mg/kg/injection, schedule: Q01DX009 (ip), vehicle: saline 97 % of control | dose: 100.0 mg/kg/injection, schedule: Q01DX009 (ip), vehicle: saline 106 % of control | dose: 200.0 mg/kg/injection, schedule: Q01DX009 (ip), vehicle: saline 101 % of control

ClCc1nsc(Cl)n1
inactive: dose: 12.5 mg/kg/injection, schedule: Q01DX005 (ip), vehicle: Klucel (hydroxypropylcellulose) (HPC) 93 % of control | dose: 25.0 mg/kg/injection, schedule: Q01DX005 (ip), vehicle: Klucel (hydroxypropylcellulose) (HPC) 98 % of control | [4] 104 % of control and 93 % of control

COc1cc2c(cc1OC)C(C1c3cc(OC)c(OC)cc3-c3c(OC)c(OC)cc4c3C1N(C)CC4)C1c3c(cc(OC)c(OC)c3-2)CCN1C (stereo unspecified)
inactive: dose: 100.0 mg/kg/injection, schedule: Q04DX003 (ip), vehicle: saline 99 % of control | dose: 200.0 mg/kg/injection, schedule: Q04DX003 (ip), vehicle: saline 100 % of control | dose: 400.0 mg/kg/injection, schedule: Q04DX003 (ip), vehicle: saline 97 % of control

Cc1cc[c]([Sb]2[O]C(CO)C(C(O)C(O)C(=O)O)[O]2)cc1 (stereo unspecified)
inactive: dose: 25.0 mg/kg/injection, schedule: Q01DX005 (ip), vehicle: saline 101 % of control and 104 % of control and 105 % of control

O=c1[nH]c2c(c(O)c1-c1ccccc1)CCCN2
inactive: dose: 100.0 mg/kg/injection, schedule: Q04DX003 (ip), vehicle: Klucel (hydroxypropylcellulose) (HPC) 102 % of control | dose: 200.0 mg/kg/injection, schedule: Q04DX003 (ip), vehicle: Klucel (hydroxypropylcellulose) (HPC) 100 % of control | dose: 400.0 mg/kg/injection, schedule: Q04DX003 (ip), vehicle: Klucel (hydroxypropylcellulose) (HPC) 110 % of control

CCOC(=O)C1=C(C)NC(=O)NC1c1ccc(C)cc1 (stereo unspecified)
inactive: [2] 100 % of control | [3] 95 % of control | [5] 100 % of control

CCCn1cnc(C(=O)OC)c1O (tested in a mixture with another compound)
inactive: dose: 100.0 mg/kg/injection, schedule: Q04DX002 (ip), vehicle: water 101 % of control | dose: 200.0 mg/kg/injection, schedule: Q04DX002 (ip), vehicle: water 104 % of control | dose: 400.0 mg/kg/injection, schedule: Q04DX002 (ip), vehicle: water 101 % of control

CNC(=O)O[C@H]1C(=O)O[C@@H]2C[C@H]3C(C)=C(O)C(=O)C[C@]3(C)[C@H]3[C@@H](O)[C@H](O)[C@@]4(C(=O)OC)OC[C@]32[C@@H]14
inactive: dose: 1.0 mg/kg/injection, schedule: Q01DX005 (ip), vehicle: Klucel (hydroxypropylcellulose) (HPC) 105 % of control | dose: 2.0 mg/kg/injection, schedule: Q01DX005 (ip), vehicle: Klucel (hydroxypropylcellulose) (HPC) 105 % of control | dose: 4.0 mg/kg/injection, schedule: Q01DX005 (ip), vehicle: Klucel (hydroxypropylcellulose) (HPC) 102 % of control and 108 % of control | dose: 8.0 mg/kg/injection, schedule: Q01DX005 (ip), vehicle: Klucel (hydroxypropylcellulose) (HPC) 102 % of control | dose: 16.0 mg/kg/injection, schedule: Q01DX005 (ip), vehicle: Klucel (hydroxypropylcellulose) (HPC) 101 % of control | dose: 125.0 micrograms/kg/injection, schedule: Q01DX005 (ip), vehicle: Klucel (hydroxypropylcellulose) (HPC) 103 % of control | dose: 250.0 micrograms/kg/injection, schedule: Q01DX005 (ip), vehicle: Klucel (hydroxypropylcellulose) (HPC) 95 % of control | dose: 500.0 micrograms/kg/injection, schedule: Q01DX005 (ip), vehicle: Klucel (hydroxypropylcellulose) (HPC) 95 % of control | dose: 1000.0 micrograms/kg/injection, schedule: Q01DX005 (ip), vehicle: Klucel (hydroxypropylcellulose) (HPC) 99 % of control

Cc1csc2nc(-c3cccs3)nn12
inactive: dose: 30.0 mg/kg/injection, schedule: Q01DX005 (ip), vehicle: Klucel (hydroxypropylcellulose) (HPC) 103 % of control | [6] 98 % of control | [7] 103 % of control | [8] 105 % of control

N#CCc1c(C2(c3ccncc3)OCCO2)[nH]c2ccccc12
inactive: dose: 100.0 mg/kg/injection, schedule: Q01DX001 (ip), vehicle: saline 104 % of control | dose: 200.0 mg/kg/injection, schedule: Q01DX001 (ip), vehicle: saline 113 % of control | dose: 400.0 mg/kg/injection, schedule: Q01DX001 (ip), vehicle: saline 98 % of control

O=[N+]([O-])c1ccccc1C(Nc1nncs1)Nc1nncs1
inactive: [4] 102 % of control | dose: 100.0 mg/kg/injection, schedule: Q01DX005 (ip), vehicle: Klucel (hydroxypropylcellulose) (HPC) 102 % of control and 121 % of control

CCCCC(CC)(CCN)CCCC
inactive: dose: 5.0 mg/kg/injection, schedule: Q01DX009 (ip), vehicle: suspension in saline 107 % of control | dose: 10.0 mg/kg/injection, schedule: Q01DX009 (ip), vehicle: suspension in saline 103 % of control | dose: 20.0 mg/kg/injection, schedule: Q01DX009 (ip), vehicle: suspension in saline 90 % of control

C=CCNS(=O)(=O)c1ccccc1
inactive: [9] 102 % of control | [1] 107 % of control | [2] 94 % of control | [3] 107 % of control | [5] 107 % of control

O=C1c2cc([N+](=O)[O-])ccc2-c2c(N=Cc3ccc4c(c3)OCO4)cccc21
inactive: [10] 90 % of control | [11] 91 % of control | [12] 99 % of control

Brc1cc(Br)cc(CN2CCOCC2)c1
inactive: [10] 98 % of control | [11] 100 % of control | [12] 106 % of control

O=C(OCCCCBr)c1ccccc1
inactive: dose: 50.0 mg/kg/injection, schedule: Q01DX009 (ip), vehicle: saline + Tween-80 + alcohol 102 % of control | dose: 100.0 mg/kg/injection, schedule: Q01DX009 (ip), vehicle: saline + Tween-80 + alcohol 97 % of control | dose: 200.0 mg/kg/injection, schedule: Q01DX009 (ip), vehicle: saline + Tween-80 + alcohol 96 % of control | dose: 400.0 mg/kg/injection, schedule: Q01DX009 (ip), vehicle: saline + Tween-80 + alcohol 111 % of control

COC(=O)c1c(C)oc(C)c1-c1ccc(OCc2ccccc2)c(OC)c1
inactive: [6] 114 % of control | [7] 98 % of control | [8] 94 % of control

CCCCOc1cc(N)nc2ccccc12
inactive: dose: 12.5 mg/kg/injection, schedule: Q04DX002 (ip), vehicle: saline with Tween-80 95 % of control | dose: 25.0 mg/kg/injection, schedule: Q04DX002 (ip), vehicle: saline with Tween-80 100 % of control | dose: 50.0 mg/kg/injection, schedule: Q04DX002 (ip), vehicle: saline with Tween-80 99 % of control

COc1ccc2ccc3ccc(OC)c(OC(C)=O)c3c2c1
inactive: [6] 100 % of control | [7] 98 % of control | [8] 91 % of control

COCCOC(=O)Nc1c(Cl)cccc1Cl
inactive: [10] 98 % of control | [11] 100 % of control | [12] 100 % of control

Cc1ccc(S(=O)(=O)N/N=C2/C=CC3(CCCC3)CC2)cc1
inactive: dose: 50.0 mg/kg/injection, schedule: Q01DX001 (ip), vehicle: Klucel (hydroxypropylcellulose) (HPC) 88 % of control | [13] 91 % of control | [14] 88 % of control and 90 % of control | [15] 89 % of control

C(=C1CC(=Cc2ccccc2)C1)c1ccccc1
inactive: [13] 94 % of control | [14] 88 % of control | [15] 88 % of control

CCOC(=O)c1cc[nH]c1CC(=O)OC
inactive: dose: 100.0 mg/kg/injection, schedule: Q01DX001 (ip), vehicle: saline with Tween-80 99 % of control | dose: 200.0 mg/kg/injection, schedule: Q01DX001 (ip), vehicle: saline with Tween-80 96 % of control | dose: 400.0 mg/kg/injection, schedule: Q01DX001 (ip), vehicle: saline with Tween-80 100 % of control

O=c1c2ccccc2c2nccn2c2ccccc12
inactive: [10] 90 % of control | [11] 90 % of control | [12] 96 % of control

CC(C)(C)CC(C)(C)c1ccc(O)cc1O
inactive: dose: 12.5 mg/kg/injection, schedule: Q04DX003 (ip), vehicle: saline with Tween-80 110 % of control | [9] 105 % of control | [1] 120 % of control
